Data reported in patent US12264134B2 (Merck Sharp & Dohme LLC, priority 2018, dated 2025).

Biological target: IDO1 (Homo sapiens, UniProt P14902)
Test: IDO1 Cellular Assay in HeLa Cells Stimulated with IFNγ
Assay type: cell-based
Settings: read-out: HeLa Cell Potency, IC50

IDO1, sequence (P14902 whole entry): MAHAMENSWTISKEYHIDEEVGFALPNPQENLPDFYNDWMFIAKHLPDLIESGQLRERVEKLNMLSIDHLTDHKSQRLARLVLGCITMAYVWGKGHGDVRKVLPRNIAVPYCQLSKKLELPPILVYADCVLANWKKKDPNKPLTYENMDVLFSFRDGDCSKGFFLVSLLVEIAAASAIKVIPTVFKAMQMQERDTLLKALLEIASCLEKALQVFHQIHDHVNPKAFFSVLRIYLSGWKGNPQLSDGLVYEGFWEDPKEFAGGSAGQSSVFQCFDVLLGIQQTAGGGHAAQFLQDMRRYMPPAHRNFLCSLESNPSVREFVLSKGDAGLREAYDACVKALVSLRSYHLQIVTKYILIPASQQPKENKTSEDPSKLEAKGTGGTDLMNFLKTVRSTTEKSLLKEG

SMILES	IC50 [nM]
Cc1cccc(N2CCN(C(=O)Cn3nc(C(=O)N4CCCC(N5CCNC5=O)C4)c4c3C[C@H]3C[C@@H]43)CC2)c1C (stereo partly drawn) [Example 226, 1-{1-[(3bR,4aR)-1-{2-[4-(2,3-dimethylphenyl)piperazin-1-yl]-2-oxoethyl}-3b,4,4a,5-tetrahydro-1H-cyclopropa[3,4]cyclopenta[1,2-c]pyrazole-3-carbonyl]piperidin-3-yl}imidazolidin-2-one]	6.33
Cc1cccc(N2CCN(C(=O)Cn3nc(C(=O)N4CCN(C(=O)CO)CC4)c4c3C[C@H]3C[C@@H]43)C(C(F)F)C2)c1C (stereo partly shown) [Example 390]	226
CCc1cccc(N2CCN(C(=O)Cn3nc(C(=O)N4C[C@@H](C)O[C@@H](C)C4)c4c3CCC4)CC2)c1 [Example 60, 2-{3-[(2R,6S)-2,6-dimethylmorpholine-4-carbonyl]-5,6-dihydrocyclopenta[c]pyrazol-1(4H)-yl}-1-[4-(3-ethylphenyl)piperazin-1-yl]ethan-1-one]	209
Cc1cccc(N2CCN(C(=O)Cn3nc(C(=O)N4CCC(C)(N)CC4)c4c3CCC4)CC2)c1C [Example 176, 2-[3-(4-amino-4-methylpiperidine-1-carbonyl)-5,6-dihydrocyclopenta[c]pyrazol-1(4H)-yl]-1-[4-(2,3-dimethylphenyl)piperazin-1-yl]ethan-1-one]	476
Cc1cccc(N2CCN(C(=O)Cn3nc(C(=O)N4CCC(O)CC4)c4c3C[C@H]3C[C@@H]43)C(C(F)F)C2)c1C (single isomer, unassigned) [Example 386]	14
Cc1cccc(N2CCN(C(=O)Cn3nc(C(=O)N4CC[C@@H](O)C[C@H]4C)c4c3C[C@H]3C[C@@H]43)CC2)c1C [Example 231, 1-[4-(2,3-dimethylphenyl)piperazin-1-yl]-2-{(3bR,4aR)-3-[(2R,4R)-4-hydroxy-2-methylpiperidine-1-carbonyl]-3b,4,4a,5-tetrahydro-1H-cyclopropa[3,4]cyclopenta[1,2-c]pyrazol-1-yl}ethan-1-one]	4.38
Cc1c(Cl)cccc1N1CCN(C(=O)Cn2nc(C(=O)N3CC[C@H](O)C(C)C3)c3c2C[C@H]2C[C@@H]32)CC1 (stereo in doubt) [Example 351, 1-(4-(3-chloro-2-methylphenyl)piperazin-1-yl)-2-((3bR,4aR)-3-((3S,4S)-4-hydroxy-3-methylpiperidine-1-carbonyl)-3b,4,4a,5-tetrahydro-1H-cyclopropa[3,4]cyclopenta[1,2-c]pyrazol-1-yl)ethanone]	1.26
Cc1c(F)cccc1N1CCN(C(=O)Cn2nc(C(=O)N3C[C@@H](C)O[C@@H](C)C3)c3c2CCC3)CC1 [Example 77, 2-{3-[(2R,6S)-2,6-dimethylmorpholine-4-carbonyl]-5,6-dihydrocyclopenta[c]pyrazol-1(4H)-yl}-1-[4-(3-fluoro-2-methylphenyl)piperazin-1-yl]ethan-1-one]	18.3
C[C@@H]1CN(C(=O)c2nn(CC(=O)N3CCN(c4ccc(F)c(F)c4F)CC3)c3c2CCC3)C[C@H](C)O1 [Example 70, 2-{3-[(2R,6S)-2,6-dimethylmorpholine-4-carbonyl]-5,6-dihydrocyclopenta[c]pyrazol-1(4H)-yl}-1-[4-(2,3,4-trifluorophenyl)piperazin-1-yl]ethan-1-one]	235
O=C(Cn1nc(C(=O)N2CCC(O)CC2)c2c1CCC2)N1CCN(C2CCCc3ccccc32)CC1 (single isomer, unassigned) [Example 430]	184

Second part, the compound after the results:

IC50 [nM]	SMILES
413	Cc1cccc(N2CCN(C(=O)Cn3nc(C(=O)N4CC[C@H](O)[C@@H](F)C4)c4c3CC(F)(F)C4)CC2)c1C [Example 424, 2-(5,5-difluoro-3-((3 S,4S)-3-fluoro-4-hydroxypiperidine-1-carbonyl)-5,6-dihydrocyclopenta[c]pyrazol-1(4H)-yl)-1-(4-(2,3-dimethylphenyl)piperazin-1-yl)ethan-1-one]
258	Cc1cccc(N2CCN(C(=O)Cn3nc(C(=O)N4CCN(C(=O)CN)CC4)c4c3CCC4)CC2)c1C [Example 398, 2-amino-1-(4-(1-(2-(4-(2,3-dimethylphenyl)piperazin-1-yl)-2-oxoethyl)-1,4,5,6-tetrahydrocyclopenta[c]pyrazole-3-carbonyl)piperazin-1-yl)ethanone]
16.3	Cc1cccc(N2CCN(C(=O)Cn3nc(C(=O)N4CCCC(NC(N)=O)C4)c4c3C[C@H]3C[C@@H]43)CC2)c1C (stereo partly drawn) [Example 272, N-{1-[(3bR,4aR)-1-{2-[4-(2,3-dimethylphenyl)piperazin-1-yl]-2-oxoethyl}-3b,4,4a,5-tetrahydro-1H-cyclopropa[3,4]cyclopenta[1,2-c]pyrazole-3-carbonyl]piperidin-3-yl}urea]
63.5	Cc1cccc(N2CCN(C(=O)Cn3nc(C(=O)N4CCC(F)(F)[C@H](O)C4)c4c3CCC4)CC2)c1C (single isomer, unassigned) [Example 210, 2-[3-[(3R or 3S)-4,4-difluoro-3-hydroxy-piperidine-1-carbonyl]-5,6-dihydro-4H-cyclopenta[c]pyrazol-1-yl]-1-[4-(2,3-dimethylphenyl)piperazin-1-yl]ethanone]
0.84	Cc1cccc(N2CCN(C(=O)Cn3nc(C(=O)N4CCN(CC(F)F)CC4)c4c3C[C@H]3C[C@@H]43)CC2)c1C [Example 260, 2-{(3bR,4aR)-3-[4-(2,2-difluoroethyl)piperazine-1-carbonyl]-3b,4,4a,5-tetrahydro-1H-cyclopropa[3,4]cyclopenta[1,2-c]pyrazol-1-yl}-1-[4-(2,3-dimethyl-phenyl)piperazin-1-yl]ethan-1-one]
15.1	Cc1cccc(N2CCN(C(=O)Cn3nc(C(=O)N4C[C@@H](C)O[C@@H](C)C4)c4c3C[C@@H]3C[C@H]43)CC2)c1C [Example 299, 2-{(3bS,4aS)-3-[(2R,6S)-2,6-dimethylmorpholine-4-carbonyl]-3b,4,4a,5-tetrahydro-1H-cyclopropa[3,4]cyclopenta[1,2-c]pyrazol-1-yl}-1-[4-(2,3-dimethylphenyl)piperazin-1-yl]ethan-1-one]
0.94	Cc1cccc(N2CCN(C(=O)Cn3nc(C(=O)N4CCN(CC(F)(F)F)CC4)c4c3C[C@H]3C[C@@H]43)CC2)c1C [Example 250, 1-[4-(2,3-dimethylphenyl)piperazin-1-yl]-2-{(3bR,4aR)-3-[4-(2,2,2-trifluoroethyl)piperazine-1-carbonyl]-3b,4,4a,5-tetrahydro-1H-cyclopropa[3,4]cyclopenta[1,2-c]pyrazol-1-yl}ethan-1-one]
3.92	Cc1cccc(N2CCN(C(=O)Cn3nc(C(=O)N4CCC(n5nccn5)CC4)c4c3CCC4)CC2)c1C [Example 138, 1-[4-(2,3-dimethylphenyl)piperazin-1-yl]-2-{3-[4-(2H-1,2,3-triazol-2-yl)piperidine-1-carbonyl]-5,6-dihydrocyclopenta[c]pyrazol-1(4H)-yl}ethan-1-one]
260	C[C@@H]1CN(C(=O)c2nn(CC(=O)N3CCN(c4cc(F)c(F)cc4Cl)CC3)c3c2CCC3)C[C@H](C)O1 [Example 44, 1-[4-(2-chloro-4,5-difluorophenyl)piperazin-1-yl]-2-{3-[(2R,6S)-2,6-dimethylmorpholine-4-carbonyl]-5,6-dihydrocyclopenta[c]pyrazol-1(4H)-yl}ethan-1-one]
